Test results published in the kinase profiling compilation of Christmann-Franck et al. (2016).
Values belong to the molecule of their own block, whether it stands above or below them.

What was measured:
Experiment in all cases: radiometric filter-binding kinase assay
ROCK2 (rat) = conditions: accession and sequence are those of the human protein
MELK (human) = MELK (human) (UniProt Q14680)
MAPKAPK5 (human) = MAPKAPK5 (human) (UniProt Q8IW41)
IKBKE (human) = IKBKE (human) (UniProt Q14164)
EPHA2 (human) = EPHA2 (human) (UniProt P29317)
DYRK2 (human) = DYRK2 (human) (UniProt Q92630)
CHEK2 (human) = CHEK2 (human) (UniProt O96017)
TTK (human) = TTK (human) (UniProt P33981)
CLK2 (human) = CLK2 (human) (UniProt P49760)
PRKCA (human) = PRKCA (human) (UniProt P17252)
STK3 (human) = STK3 (human) (UniProt Q13188)
MAPKAPK2 (human) = MAPKAPK2 (human) (UniProt P49137)
NEK2 (human) = NEK2 (human) (UniProt P51955)
HIPK2 (human) = HIPK2 (human) (UniProt Q9H2X6)
MARK1 (human) = MARK1 (human) (UniProt Q9P0L2)
PIM1 (human) = PIM1 (human) (UniProt P11309)
FLT1 (human) = FLT1 (human) (UniProt P17948)
MYLK (human) = MYLK (human) (UniProt Q15746)
EPHB1 (human) = EPHB1 (human) (UniProt P54762); conditions: compound 10.0 µM
[1] = system: SGK1 (human), O00141 [S422D]
EPHB4 (human) = EPHB4 (human) (UniProt P54760)
EPHB2 (human) = EPHB2 (human) (UniProt P29323)
DAPK1 (human) = DAPK1 (human) (UniProt P53355)
MARK2 (human) = MARK2 (human) (UniProt Q7KZI7)
MAPK14 (human) = MAPK14 (human) (UniProt Q16539)
RPS6KA1 KD1 KD2 (human) = RPS6KA1 KD1 KD2 (human) (UniProt Q15418)
PKN2 (human) = PKN2 (human) (UniProt Q16513)
PIM3 (human) = PIM3 (human) (UniProt Q86V86)
IRAK4 (human) = IRAK4 (human) (UniProt Q9NWZ3)
[2] = system: RPS6KB1 (human), P23443 [T412E]
MAP3K7 TAB1 (human) = MAP3K7 TAB1 (human) (UniProt Q15750+O43318)
DYRK3 (human) = DYRK3 (human) (UniProt O43781)
MAPK12 (human) = MAPK12 (human) (UniProt P53778)
GCK (human) = GCK (human) (UniProt Q12851)

DYRK2 (human), sequence (Q92630 whole entry, looked up): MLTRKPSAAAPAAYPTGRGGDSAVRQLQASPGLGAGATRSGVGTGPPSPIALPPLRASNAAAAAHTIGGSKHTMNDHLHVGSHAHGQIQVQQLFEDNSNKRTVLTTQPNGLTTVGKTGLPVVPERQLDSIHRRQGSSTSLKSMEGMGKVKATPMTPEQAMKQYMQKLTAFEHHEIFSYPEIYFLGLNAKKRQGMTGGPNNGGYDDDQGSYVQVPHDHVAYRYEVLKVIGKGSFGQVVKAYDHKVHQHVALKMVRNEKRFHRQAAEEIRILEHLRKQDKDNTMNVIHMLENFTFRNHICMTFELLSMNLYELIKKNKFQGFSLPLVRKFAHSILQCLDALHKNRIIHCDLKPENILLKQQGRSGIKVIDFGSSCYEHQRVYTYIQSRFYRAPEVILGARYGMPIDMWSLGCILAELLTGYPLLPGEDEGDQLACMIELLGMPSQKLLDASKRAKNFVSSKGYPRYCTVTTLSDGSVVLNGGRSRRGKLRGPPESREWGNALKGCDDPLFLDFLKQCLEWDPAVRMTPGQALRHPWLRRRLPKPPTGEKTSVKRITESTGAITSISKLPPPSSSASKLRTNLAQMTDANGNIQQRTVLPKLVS
STK3 (human), sequence (Q13188 whole entry, looked up): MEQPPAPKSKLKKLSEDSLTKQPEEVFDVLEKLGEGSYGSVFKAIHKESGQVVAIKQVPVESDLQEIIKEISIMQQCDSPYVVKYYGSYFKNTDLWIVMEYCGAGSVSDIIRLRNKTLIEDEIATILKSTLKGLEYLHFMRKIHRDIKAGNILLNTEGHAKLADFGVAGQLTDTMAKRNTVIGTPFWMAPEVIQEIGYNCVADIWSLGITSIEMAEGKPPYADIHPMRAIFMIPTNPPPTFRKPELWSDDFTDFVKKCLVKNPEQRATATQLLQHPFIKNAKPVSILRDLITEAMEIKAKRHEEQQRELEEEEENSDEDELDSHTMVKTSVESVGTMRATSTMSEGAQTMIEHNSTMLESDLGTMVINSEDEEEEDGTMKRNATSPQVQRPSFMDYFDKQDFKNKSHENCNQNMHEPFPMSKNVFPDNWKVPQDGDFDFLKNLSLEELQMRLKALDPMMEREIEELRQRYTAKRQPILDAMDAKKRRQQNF
MARK2 (human), sequence (Q7KZI7 whole entry, looked up): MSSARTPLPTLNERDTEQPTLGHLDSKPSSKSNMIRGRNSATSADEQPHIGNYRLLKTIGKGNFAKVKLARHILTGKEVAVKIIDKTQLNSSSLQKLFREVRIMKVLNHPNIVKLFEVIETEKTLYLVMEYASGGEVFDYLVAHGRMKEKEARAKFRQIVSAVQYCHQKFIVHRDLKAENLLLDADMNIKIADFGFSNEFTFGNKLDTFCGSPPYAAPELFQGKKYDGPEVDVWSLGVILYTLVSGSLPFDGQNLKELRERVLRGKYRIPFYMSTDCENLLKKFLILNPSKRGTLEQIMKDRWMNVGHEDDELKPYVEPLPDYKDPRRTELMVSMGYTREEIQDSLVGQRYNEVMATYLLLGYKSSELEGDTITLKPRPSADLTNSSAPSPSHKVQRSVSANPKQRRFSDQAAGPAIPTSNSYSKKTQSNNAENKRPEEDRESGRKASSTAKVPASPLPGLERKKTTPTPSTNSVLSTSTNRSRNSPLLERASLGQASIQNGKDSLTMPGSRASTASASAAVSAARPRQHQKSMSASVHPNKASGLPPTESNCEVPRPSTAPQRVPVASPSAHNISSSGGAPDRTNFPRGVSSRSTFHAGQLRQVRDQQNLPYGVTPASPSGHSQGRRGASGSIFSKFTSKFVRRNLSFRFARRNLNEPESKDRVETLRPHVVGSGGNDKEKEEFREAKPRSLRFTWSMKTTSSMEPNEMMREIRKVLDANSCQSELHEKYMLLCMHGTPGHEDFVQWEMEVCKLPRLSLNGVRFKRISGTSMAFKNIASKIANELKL
FLT1 (human), sequence (P17948 whole entry, looked up): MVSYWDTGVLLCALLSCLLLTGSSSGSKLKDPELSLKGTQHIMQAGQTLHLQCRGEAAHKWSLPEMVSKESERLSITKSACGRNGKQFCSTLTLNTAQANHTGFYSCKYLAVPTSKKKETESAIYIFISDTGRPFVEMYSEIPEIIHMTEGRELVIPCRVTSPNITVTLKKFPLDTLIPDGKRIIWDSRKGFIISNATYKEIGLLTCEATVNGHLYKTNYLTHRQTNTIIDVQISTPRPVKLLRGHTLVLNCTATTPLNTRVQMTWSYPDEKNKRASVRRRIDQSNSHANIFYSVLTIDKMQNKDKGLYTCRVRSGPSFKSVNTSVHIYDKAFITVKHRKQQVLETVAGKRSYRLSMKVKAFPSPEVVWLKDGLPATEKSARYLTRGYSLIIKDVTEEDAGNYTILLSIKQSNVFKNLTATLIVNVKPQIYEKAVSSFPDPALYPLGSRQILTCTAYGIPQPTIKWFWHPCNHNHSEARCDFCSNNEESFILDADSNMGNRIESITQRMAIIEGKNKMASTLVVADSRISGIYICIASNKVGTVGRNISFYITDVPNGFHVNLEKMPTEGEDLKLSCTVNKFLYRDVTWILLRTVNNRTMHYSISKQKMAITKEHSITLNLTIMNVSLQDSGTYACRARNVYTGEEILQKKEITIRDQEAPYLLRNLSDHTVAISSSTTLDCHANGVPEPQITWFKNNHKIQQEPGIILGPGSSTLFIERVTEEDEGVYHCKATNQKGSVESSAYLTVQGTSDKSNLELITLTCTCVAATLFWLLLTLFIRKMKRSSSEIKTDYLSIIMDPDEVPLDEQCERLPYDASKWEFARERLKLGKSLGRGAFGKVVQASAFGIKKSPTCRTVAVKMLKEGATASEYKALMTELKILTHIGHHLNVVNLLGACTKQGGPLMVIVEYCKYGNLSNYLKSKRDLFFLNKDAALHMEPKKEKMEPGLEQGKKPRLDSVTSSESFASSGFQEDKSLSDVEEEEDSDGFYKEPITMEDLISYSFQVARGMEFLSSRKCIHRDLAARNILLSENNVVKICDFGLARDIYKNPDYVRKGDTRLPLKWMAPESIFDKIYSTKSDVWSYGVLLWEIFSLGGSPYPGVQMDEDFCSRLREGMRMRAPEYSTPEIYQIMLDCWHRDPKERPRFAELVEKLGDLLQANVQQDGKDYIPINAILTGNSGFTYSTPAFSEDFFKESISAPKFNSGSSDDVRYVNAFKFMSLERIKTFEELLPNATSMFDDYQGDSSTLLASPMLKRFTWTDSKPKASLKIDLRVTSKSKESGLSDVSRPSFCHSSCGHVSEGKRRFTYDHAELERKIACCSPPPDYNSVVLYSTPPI
IKBKE (human), sequence (Q14164 whole entry, looked up): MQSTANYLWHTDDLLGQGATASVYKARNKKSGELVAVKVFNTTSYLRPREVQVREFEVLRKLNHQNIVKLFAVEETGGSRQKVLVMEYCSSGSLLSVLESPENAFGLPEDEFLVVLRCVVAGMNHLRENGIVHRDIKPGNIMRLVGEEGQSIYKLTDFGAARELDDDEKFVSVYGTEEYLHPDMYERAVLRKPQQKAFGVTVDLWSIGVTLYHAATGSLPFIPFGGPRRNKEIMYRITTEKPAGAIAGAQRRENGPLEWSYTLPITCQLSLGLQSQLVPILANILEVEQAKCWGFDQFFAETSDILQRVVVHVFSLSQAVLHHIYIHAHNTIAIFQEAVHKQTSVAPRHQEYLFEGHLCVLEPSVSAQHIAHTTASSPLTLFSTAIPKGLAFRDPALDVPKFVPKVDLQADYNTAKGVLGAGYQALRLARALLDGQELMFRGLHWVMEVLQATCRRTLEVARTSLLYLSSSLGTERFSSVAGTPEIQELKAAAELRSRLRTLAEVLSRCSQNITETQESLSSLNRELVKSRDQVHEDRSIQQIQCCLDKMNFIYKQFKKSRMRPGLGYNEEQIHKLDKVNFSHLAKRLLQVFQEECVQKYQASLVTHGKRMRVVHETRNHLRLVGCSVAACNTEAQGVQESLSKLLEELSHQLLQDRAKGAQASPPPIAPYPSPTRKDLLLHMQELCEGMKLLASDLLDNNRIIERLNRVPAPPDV
MAPKAPK2 (human), sequence (P49137 whole entry, looked up): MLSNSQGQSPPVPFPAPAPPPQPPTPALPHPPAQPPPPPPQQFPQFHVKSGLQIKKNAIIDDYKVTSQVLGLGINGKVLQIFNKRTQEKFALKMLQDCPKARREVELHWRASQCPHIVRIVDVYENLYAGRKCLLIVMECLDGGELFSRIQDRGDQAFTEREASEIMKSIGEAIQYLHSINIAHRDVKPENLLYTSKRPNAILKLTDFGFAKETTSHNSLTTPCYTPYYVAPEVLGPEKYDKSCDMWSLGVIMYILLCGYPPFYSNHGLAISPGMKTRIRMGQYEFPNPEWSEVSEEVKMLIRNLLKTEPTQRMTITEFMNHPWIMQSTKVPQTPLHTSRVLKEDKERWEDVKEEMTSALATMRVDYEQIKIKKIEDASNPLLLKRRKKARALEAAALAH

- residual activity (ROCK2 (rat); compound 10.0 µM): 76%
- residual activity (MELK (human); compound 10.0 µM): 80%
- residual activity (MAPKAPK5 (human); compound 10.0 µM): 92%
- residual activity (IKBKE (human); compound 10.0 µM): 91%
- residual activity (EPHA2 (human); compound 10.0 µM): 98%
- residual activity (DYRK2 (human); compound 10.0 µM): 94%
- residual activity (CHEK2 (human); compound 10.0 µM): 89%
- residual activity (TTK (human); compound 10.0 µM): 93%
- residual activity (CLK2 (human); compound 10.0 µM): 79%
- residual activity (PRKCA (human); compound 10.0 µM): 113%
- residual activity (STK3 (human); compound 10.0 µM): 100%
- residual activity (MAPKAPK2 (human); compound 10.0 µM): 88%
- residual activity (NEK2 (human); compound 10.0 µM): 94%
- residual activity (HIPK2 (human); compound 10.0 µM): 88%
- residual activity (MARK1 (human); compound 10.0 µM): 81%
- residual activity (PIM1 (human); compound 10.0 µM): 88%
- residual activity (FLT1 (human); compound 10.0 µM): 64%
- residual activity (MYLK (human); compound 10.0 µM): 103%
- residual activity (EPHB1 (human)): 75%
- residual activity ([1]; compound 10.0 µM): 78%
- residual activity (EPHB4 (human); compound 10.0 µM): 91%
- residual activity (EPHB2 (human); compound 10.0 µM): 95%
- residual activity (DAPK1 (human); compound 10.0 µM): 88%
- residual activity (MARK2 (human); compound 10.0 µM): 81%
- residual activity (MAPK14 (human); compound 10.0 µM): 88%
- residual activity (RPS6KA1 KD1 KD2 (human); compound 10.0 µM): 80%
- residual activity (PKN2 (human); compound 10.0 µM): 86%
- residual activity (PIM3 (human); compound 10.0 µM): 92%
- residual activity (IRAK4 (human); compound 10.0 µM): 79%
- residual activity ([2]; compound 10.0 µM): 94%
- residual activity (MAP3K7 TAB1 (human); compound 10.0 µM): 127%
- residual activity (DYRK3 (human); compound 10.0 µM): 97%
Structure (SMILES): CC(C)C[C@H](NC(=O)CNC(=O)c1cc(Cl)ccc1Cl)B1OC(=O)CC(CC(=O)O)(C(=O)O)O1 (stereo partly drawn)

- residual activity (ROCK2 (rat); compound 0.1 µM): 96%
- residual activity (ROCK2 (rat); compound 1.0 µM): 104%
- residual activity (MELK (human); compound 0.1 µM): 111%
- residual activity (MELK (human); compound 1.0 µM): 105%
- residual activity (MAPKAPK5 (human); compound 0.1 µM): 113%
- residual activity (MAPKAPK5 (human); compound 1.0 µM): 99%
- residual activity (IKBKE (human); compound 0.1 µM): 112%
- residual activity (IKBKE (human); compound 1.0 µM): 106%
- residual activity (EPHA2 (human); compound 0.1 µM): 105%
- residual activity (EPHA2 (human); compound 1.0 µM): 92%
- residual activity (DYRK2 (human); compound 0.1 µM): 100%
- residual activity (DYRK2 (human); compound 1.0 µM): 95%
- residual activity (CHEK2 (human); compound 0.1 µM): 115%
- residual activity (CHEK2 (human); compound 1.0 µM): 110%
- residual activity (TTK (human); compound 0.1 µM): 113%
- residual activity (TTK (human); compound 1.0 µM): 98%
- residual activity (CLK2 (human); compound 0.1 µM): 106%
- residual activity (CLK2 (human); compound 1.0 µM): 98%
- residual activity (PRKCA (human); compound 0.1 µM): 97%
- residual activity (PRKCA (human); compound 1.0 µM): 102%
- residual activity (STK3 (human); compound 0.1 µM): 107%
- residual activity (STK3 (human); compound 1.0 µM): 100%
- residual activity (MAPKAPK2 (human); compound 0.1 µM): 117%
- residual activity (MAPKAPK2 (human); compound 1.0 µM): 108%
- residual activity (NEK2 (human); compound 0.1 µM): 109%
- residual activity (NEK2 (human); compound 1.0 µM): 92%
- residual activity (MAPK12 (human); compound 0.1 µM): 102%
- residual activity (MAPK12 (human); compound 1.0 µM): 88%
- residual activity (HIPK2 (human); compound 0.1 µM): 104%
- residual activity (HIPK2 (human); compound 1.0 µM): 95%
- residual activity (MARK1 (human); compound 0.1 µM): 107%
- residual activity (MARK1 (human); compound 1.0 µM): 113%
- residual activity (PIM1 (human); compound 0.1 µM): 105%
- residual activity (PIM1 (human); compound 1.0 µM): 97%
- residual activity (FLT1 (human); compound 0.1 µM): 27%
- residual activity (FLT1 (human); compound 1.0 µM): 8%
- residual activity (MYLK (human); compound 0.1 µM): 104%
- residual activity (MYLK (human); compound 1.0 µM): 89%
- residual activity ([1]; compound 0.1 µM): 107%
- residual activity ([1]; compound 1.0 µM): 103%
- residual activity (EPHB4 (human); compound 0.1 µM): 93%
- residual activity (EPHB4 (human); compound 1.0 µM): 93%
- residual activity (EPHB2 (human); compound 0.1 µM): 113%
- residual activity (EPHB2 (human); compound 1.0 µM): 95%
- residual activity (DAPK1 (human); compound 0.1 µM): 94%
- residual activity (DAPK1 (human); compound 1.0 µM): 90%
- residual activity (MARK2 (human); compound 0.1 µM): 121%
- residual activity (MARK2 (human); compound 1.0 µM): 110%
- residual activity (MAPK14 (human); compound 0.1 µM): 56%
- residual activity (MAPK14 (human); compound 1.0 µM): 16%
- residual activity (RPS6KA1 KD1 KD2 (human); compound 0.1 µM): 110%
- residual activity (RPS6KA1 KD1 KD2 (human); compound 1.0 µM): 95%
- residual activity (PKN2 (human); compound 0.1 µM): 105%
- residual activity (PKN2 (human); compound 1.0 µM): 91%
- residual activity (PIM3 (human); compound 0.1 µM): 91%
- residual activity (PIM3 (human); compound 1.0 µM): 117%
- residual activity (GCK (human); compound 0.1 µM): 98%
- residual activity (GCK (human); compound 1.0 µM): 68%
- residual activity (IRAK4 (human); compound 0.1 µM): 101%
- residual activity (IRAK4 (human); compound 1.0 µM): 99%
- residual activity ([2]; compound 0.1 µM): 108%
- residual activity ([2]; compound 1.0 µM): 105%
- residual activity (MAP3K7 TAB1 (human); compound 0.1 µM): 99%
- residual activity (MAP3K7 TAB1 (human); compound 1.0 µM): 81%
- residual activity (DYRK3 (human); compound 0.1 µM): 102%
- residual activity (DYRK3 (human); compound 1.0 µM): 93%
Structure (SMILES): Cc1cccc(-c2nn(C(=S)Nc3ccccc3)cc2-c2ccnc3ccccc23)n1
